Values joined by “and” are separate entries in the source; they are usually repeats but may differ in a detail not shown here. Equal values may be shown once. Blank lines part the entries; values can stand above or below the compound they belong to.
Tests used:
MDM2/P53 = MDM2/P53 (Homo sapiens, UniProt Q00987); test: biochemical
APC2/APC11 = APC2/APC11 (Homo sapiens, UniProt Q9NYG5+Q9UJX6); test: biochemical
APC2/APC11, sequence (Q9UJX6 whole entry): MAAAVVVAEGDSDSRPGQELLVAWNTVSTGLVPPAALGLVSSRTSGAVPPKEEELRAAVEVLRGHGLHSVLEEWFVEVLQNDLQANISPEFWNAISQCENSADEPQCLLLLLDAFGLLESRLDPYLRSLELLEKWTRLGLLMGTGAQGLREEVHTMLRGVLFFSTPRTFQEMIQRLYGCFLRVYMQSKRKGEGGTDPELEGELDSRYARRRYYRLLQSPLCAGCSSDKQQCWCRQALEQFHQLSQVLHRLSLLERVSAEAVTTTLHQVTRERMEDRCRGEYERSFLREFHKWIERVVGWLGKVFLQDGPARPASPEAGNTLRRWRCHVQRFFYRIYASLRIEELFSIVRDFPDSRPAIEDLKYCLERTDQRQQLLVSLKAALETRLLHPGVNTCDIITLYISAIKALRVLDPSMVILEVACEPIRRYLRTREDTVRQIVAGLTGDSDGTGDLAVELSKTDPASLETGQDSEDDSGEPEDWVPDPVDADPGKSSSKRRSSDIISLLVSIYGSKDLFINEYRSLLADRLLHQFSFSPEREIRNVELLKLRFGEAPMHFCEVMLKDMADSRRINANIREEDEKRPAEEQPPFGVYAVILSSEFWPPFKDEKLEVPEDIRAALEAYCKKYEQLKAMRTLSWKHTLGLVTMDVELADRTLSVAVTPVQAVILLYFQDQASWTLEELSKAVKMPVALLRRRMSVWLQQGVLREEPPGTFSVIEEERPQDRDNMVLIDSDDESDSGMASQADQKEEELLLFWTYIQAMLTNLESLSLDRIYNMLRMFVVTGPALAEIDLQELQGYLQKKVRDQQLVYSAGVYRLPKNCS
APC2/APC11, sequence (Q9NYG5 whole entry): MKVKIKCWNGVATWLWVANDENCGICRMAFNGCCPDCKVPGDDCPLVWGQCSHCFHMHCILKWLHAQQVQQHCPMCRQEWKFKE

MDM2/P53, sequence (Q00987 whole entry): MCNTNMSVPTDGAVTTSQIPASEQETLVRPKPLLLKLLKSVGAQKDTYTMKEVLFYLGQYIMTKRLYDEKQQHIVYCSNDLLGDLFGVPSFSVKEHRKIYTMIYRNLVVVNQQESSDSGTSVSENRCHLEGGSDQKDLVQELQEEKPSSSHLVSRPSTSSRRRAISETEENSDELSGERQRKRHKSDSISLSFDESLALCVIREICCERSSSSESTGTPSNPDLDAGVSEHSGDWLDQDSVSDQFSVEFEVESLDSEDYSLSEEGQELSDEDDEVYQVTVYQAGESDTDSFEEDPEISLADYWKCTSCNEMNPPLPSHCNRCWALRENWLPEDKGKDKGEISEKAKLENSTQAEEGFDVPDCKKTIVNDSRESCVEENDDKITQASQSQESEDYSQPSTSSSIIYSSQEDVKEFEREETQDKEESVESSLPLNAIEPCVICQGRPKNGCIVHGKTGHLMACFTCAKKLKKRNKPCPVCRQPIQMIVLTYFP

SMILES: O=C(O)CCN1C(=O)/C(=C/c2ccc(-c3ccc(Br)cc3)o2)SC1=S [Compound 25, 3-((5Z)-5-{[5-(4-bromophenyl)-2-furyl]methylene}-4-oxo-2-thioxo-1,3-thiazolidin-3-yl)propanoic acid]
IC50 (MDM2/P53): 5.64 µM | IC50 (APC2/APC11): 2.06 µM

SMILES: O=C1/C(=C/c2ccc(-c3ccccc3)o2)SC(=S)N1c1ccccc1 [Compound 28, (5Z)-3-phenyl-5-[(5-phenyl-2-furyl)methylene]-2-thioxo-1,3-thiazolidin-4-one]
IC50 (MDM2/P53): 0.8 µM

SMILES: CN1C(=O)/C(=C\c2ccc(-c3ccc(Cl)cc3)o2)SC1=S [Compound 29, (5E)-5-{[5-(4-chlorophenyl)-2-furyl]methylene}-3-methyl-2-thioxo-1,3-thiazolidin-4-one]
IC50 (MDM2/P53): 1.21 µM | IC50 (APC2/APC11): 1.44 µM

SMILES: CN1C(=O)/C(=C/c2ccc(-c3cccc4ccccc34)o2)SC1=S [Compound 33, (5Z)-3-methyl-5-{[5-(1-naphtthyl)-2-furyl]methylene}-2-thioxo-1,3-thiazolidin-4-one]
IC50 (MDM2/P53): 6.1 µM

SMILES: O=C1/C(=C\c2ccc(-c3ccc(Cl)cc3)o2)SC(=S)N1C1CCS(=O)(=O)C1 (stereo not drawn) [Compound 40, (5E)-5-{[5-(4-chlorophenyl)-2-furyl]methylene}-3-(1,1-dioxidotetrahydro-3-thienyl)-2-thioxo-1,3-thiazolidin-4-one]
IC50 (MDM2/P53): 5.52 µM

SMILES: Cc1c(N2C(=O)/C(=C\c3ccc(-c4ccc(Br)cc4)o3)SC2=S)c(=O)n(-c2ccccc2)n1C [Compound 51, (5E)-5-{[5-(4-bromophenyl)-2-furyl]methylene}-3-(1,5-dimethyl-3-oxo-2-phenyl-2,3-dihydro-1H-pyrazol-4-yl)-2-thioxo-1,3-thiazolidin-4-one]
IC50 (MDM2/P53): 9.24 µM | IC50 (APC2/APC11): 12.1 µM

SMILES: C=CCN1C(=O)/C(=C\c2ccc(-c3cccc(C(F)(F)F)c3)o2)SC1=S [Compound 63, (5E)-3-allyl-2-thioxo-5-({5-[3-(trifluoromethyl)phenyl]-2-furyl}methylene)-1,3-thiazolidin-4-one]
IC50 (APC2/APC11): 0.2 µM

SMILES: CCOc1ccc(N2C(=O)/C(=C\c3ccc(-c4ccc(Br)cc4)o3)SC2=S)cc1 [Compound 69, (5E)-5-{[5-(4-bromophenyl)-2-furyl]mthylene}-3-(4-ethoxyphenyl)-2-thioxo-1,3-thiazolidin-4-one]
IC50 (MDM2/P53): 14.2 µM

SMILES: O=C1/C(=C\c2ccc(-c3ccc([N+](=O)[O-])cc3)o2)SC(=S)N1CCc1ccccc1 [Compound 75, (5E)-5-{[5-(4-nitrophenyl)-2-furyl]methylene}-3-(2-phenylethyl)-2-thioxo-1,3-thiazolidin-4-one]
IC50 (MDM2/P53): 13.6 µM

SMILES: O=C(O)CCN1C(=O)/C(=C/c2ccc(-c3ccc(Cl)cc3Cl)o2)SC1=S [Compound 77, 3-((5Z)-5-{[5-(2,4-dichlorophenyl)-2-furyl]methylene}-4-oxo-2-thioxo-1,3-thiazolidin-3-yl)propanoic acid]
IC50 (MDM2/P53): 0.81 µM

SMILES: O=C(O)CN1C(=O)/C(=C\c2ccc(-c3ccc(Cl)c(Cl)c3)o2)SC1=S [Compound 82, ((5E)-5-{[5-(3,4-dichlorophenyl)-2-furyl]methylene}-4-oxo-2-thioxo-1,3-thiazolidin-3-yl)acetic acid]
IC50 (MDM2/P53): 1.5 µM | IC50 (APC2/APC11): 5 µM

SMILES: COc1ccc(N2C(=O)/C(=C\c3ccc(-c4ccc(Br)cc4)o3)SC2=S)cc1 [Compound 96, (5E)-5-{[5-(4-bromophenyl)-2-furyl]methylene}-3-(4-methoxyphenyl)-2-thioxo-1,3-thiazolidin-4-one]
IC50 (MDM2/P53): 0.56 µM | IC50 (APC2/APC11): 10 µM

SMILES: O=C1/C(=C\c2ccc(-c3cccc([N+](=O)[O-])c3)o2)SC(=S)N1Cc1ccccc1 [Compound 98, (5E)-3-benzyl-5-{[5-(3-nitrophenyl)-2-furyl]methylene}-2-thioxo-1,3-thiazolidin-4-one]
IC50 (MDM2/P53): 11.6 µM

SMILES: NS(=O)(=O)c1ccc(-c2ccc(/C=C3\SC(=S)N(CCc4ccccc4)C3=O)o2)cc1 [Compound 103, 4-(5-{(Z)-[4-oxo-3-(2-phenylethyl)-2-thioxo-1,3-thiazolidin-5-ylidene]methyl}-2-furyl)benzenesulfonamide]
IC50 (MDM2/P53): 3.87 µM

SMILES: O=C(O)c1cccc(-c2ccc(/C=C3\SC(=S)N(C4CCCCC4)C3=O)o2)c1 [Compound 176, 3-{5-[(Z)-(3-cyclohexyl-4-oxo-2-thioxo-1,3-thiazolidin-5-ylidene)methyl]-2-furyl}benzoic acid]
IC50 (APC2/APC11): 0.4 µM and 0.7 µM

SMILES: CN1C(=O)/C(=C\c2ccc(-c3cccc([N+](=O)[O-])c3)o2)SC1=S [Compound 183, (5E)-3-methyl-5-{[5-(3-nitrophenyl)-2-furyl]methylene}-2-thioxo-1,3-thiazolidin-4-one]
IC50 (APC2/APC11): 0.1 µM

SMILES: O=C1/C(=C/c2ccc(-c3ccc([N+](=O)[O-])cc3)o2)SC(=S)N1Cc1ccccc1 [Compound 199, (5Z)-3-benzyl-5-{[5-(4-nitrophenyl)-2-furyl]methylene}-2-thioxo-1,3-thiazolidin-4-one]
IC50 (APC2/APC11): 0.1 µM

SMILES: O=C1NC(=S)S/C1=C/c1ccc(-c2ccc(Cl)cc2)o1 [Compound 238, (5E)-5-{[5-(4-chlorophenyl)-2-furyl]methylene}-2-thioxo-1,3-thiazolidin-4-one]
IC50 (APC2/APC11): 5 µM

SMILES: O=C1/C(=C/c2ccc(-c3cccc([N+](=O)[O-])c3)o2)SC(=S)N1CC1CCCO1 (stereo not drawn) [Compound 254, (5Z)-5-{[5-(3-nitrophenyl)-2-furyl]methylene}-3-(tetrahydrofuran-2-ylmethyl)-2-thioxo-1,3-thiazolidin-4-one]
IC50 (MDM2/P53): 24.8 µM

SMILES: O=C(O)CCN1C(=O)/C(=C\c2ccc(-c3ccc(Cl)c(Cl)c3)o2)SC1=S [Compound 256, 3-((5E)-5-{[5-(3,4-dichlorophenyl)-2-furyl]methylene}-4-oxo-2-thioxo-1,3-thiazolidin-3-yl)propanoic acid]
IC50 (MDM2/P53): 0.53 µM

SMILES: O=C1NC(=S)S/C1=C/c1ccc(-c2cc(Cl)ccc2Cl)o1 [Compound 270, (5E)-5-{[5-(2,5-dichlorophenyl)-2-furyl]methylene}-2-thioxo-1,3-thiazolidin-4-one]
IC50 (APC2/APC11): 3 µM

SMILES: O=C1/C(=C/c2ccc(-c3ccccc3Cl)o2)SC(=S)N1CCc1cccs1 [Compound 275, (5Z)-5-{[5-(2-chlorophenyl)-2-furyl]methylene}-3-[2-(2-thienyl)ethyl]-2-thioxo-1,3-thiazolidin-4-one]
IC50 (MDM2/P53): 1.16 µM | IC50 (APC2/APC11): 0.32 µM

SMILES: O=C1/C(=C/c2ccc(-c3ccccc3Cl)o2)SC(=S)N1Cc1ccc2c(c1)OCO2 [Compound 299, (5Z)-3-(1,3-benzodioxol-5-ylmethyl)-5-{[5-(2-chlorophenyl)-2-furyl]methylene}-2-thioxo-1,3-thiazolidin-4-one]
IC50 (MDM2/P53): 0.45 µM

SMILES: O=C1C(Cc2ccc(-c3ccccc3Cl)o2)SC(=S)N1Cc1ccc2c(c1)OCO2 (stereo not drawn) [Compound 305, 3-(1,3-benzodioxol-5-ylmethyl)-5-{[5-(2-chlorophenyl)-2-furyl]methyl}-2-thioxo-1,3-thiazolidin-4-one]
IC50 (MDM2/P53): 10.8 µM

More lines, now with the values ahead:

IC50 (MDM2/P53): 7.94 µM | IC50 (APC2/APC11): 5.15 µM
SMILES: CN1C(=O)/C(=C/c2ccc(-c3ccc(S(N)(=O)=O)cc3)o2)SC1=S [Compound 23, 4-{5-[(Z)-(3-methyl-4-oxo-2-thioxo-1,3-thiazolidin-5-ylidene)methyl]-2-furyl}benzenezulffonamide]

IC50 (MDM2/P53): 10.7 µM
SMILES: O=C1/C(=C/c2ccc(-c3ccc(Br)cc3)o2)SC(=S)N1c1ccccc1 [Compound 27, (5Z)-5-{[5-(4-bromophenyl)-2-furyl]methylene}-3-phenyl-2-thioxo-1,3-thiazolidin-4-one]

IC50 (MDM2/P53): 2.32 µM | IC50 (APC2/APC11): 5.49 µM
SMILES: O=C1/C(=C/c2ccc(-c3cccc4ccccc34)o2)SC(=S)N1Cc1ccccc1 [Compound 30, (5Z)-3-benzyl-5-{[5-(1-nephthyl)-2-furyl]methylene}-2-thioxo-1,3-thiazolidin-4-one]

IC50 (MDM2/P53): 4.92 µM | IC50 (APC2/APC11): 0.91 µM
SMILES: O=C(O)c1cccc(-c2ccc(/C=C3/SC(=S)N(c4cccc(Cl)c4)C3=O)o2)c1 [Compound 46, 3-(5-{(E)-[3-(3-chlorophenyl)-4-oxo-2-thioxo-1,3-thiazolidin-5-ylidene]methyl}-2-furyl)benzoic acid]

IC50 (MDM2/P53): 2.69 µM | IC50 (APC2/APC11): 3.7 µM
SMILES: CN1C(=O)/C(=C\c2ccc(-c3cccc(Br)c3)o2)SC1=S [Compound 50, (5E)-5-{[5-(3-bromophenyl)-2-furyl]methylene]-3-methyl-2-thioxo-1,3-thiazolidin-4-one]

IC50 (MDM2/P53): 0.074 µM | IC50 (APC2/APC11): 0.035 µM
SMILES: O=C1/C(=C\c2ccc(-c3cccc(C(F)(F)F)c3)o2)SC(=S)N1Cc1ccccc1 [Compound 54, (5E)-3-benzyl-2-thioxo-5-({5-[3-(trifluoromethyl)phenyl]-2-furyl}methylene)-1,3-thiazolidin-4-one]

IC50 (MDM2/P53): 0.21 µM
SMILES: O=C1/C(=C\c2ccc(-c3ccccc3Cl)o2)SC(=S)N1C1CCS(=O)(=O)C1 (stereo not drawn) [Compound 99, (5E)-5-{[5-(2-chlorophenyl)-2-furyl]methylene}-3-(1,1-dioxidotetrahydro-3-thienyl)-2-thioxo-1,3-thiazolidin-4-one]

IC50 (APC2/APC11): 10 µM
SMILES: O=C(O)CN1C(=O)/C(=C\c2ccc(-c3ccc(Cl)cc3)o2)SC1=S [Compound 145, ((5E)-5-{[5-(4-chlorophenyl)-2-furyl]methylene}-4-oxo-2-thioxo-1,3-thiazolidin-3-yl)acetic acid]

IC50 (APC2/APC11): 10 µM
SMILES: O=C(O)CN1C(=O)/C(=C\c2ccc(-c3cccc(C(F)(F)F)c3)o2)SC1=S [Compound 146, [(5E)-4-oxo-2-thioxo-5-({5-[3-(trifluoromethyl)phenyl]-2-furyl]methylene)-1,3-thiazolidin-3-yl]acetic acid]

IC50 (MDM2/P53): 1.18 µM | IC50 (APC2/APC11): 0.11 µM
SMILES: COc1ccc(CN2C(=O)/C(=C/c3ccc(-c4ccccc4Cl)o3)SC2=S)cc1 [Compound 274, (5Z)-5-{[5-(2-chlorophenyl)-2-furyl]methylene}-3-(4-methoxybenzyl)-2-thioxo-11,3-thiazolidin-4-one]

IC50 (MDM2/P53): 5.21 µM
SMILES: O=C1/C(=C/c2ccc(-c3ccccc3Cl)o2)SC(=S)N1CCc1ccccn1 [Compound 278, (5Z)-5-{[5-(2-chlorophenyl)-2-furyl]methylene}-3-(2-pyridin-2-ylethyl)-2-thioxo-1,3-thiazolidin-4-one]

IC50 (MDM2/P53): 4.6 µM
SMILES: C[C@H](NC(=O)CN1C(=O)/C(=C/c2ccc(-c3ccccc3Cl)o2)SC1=S)C(=O)OC(C)(C)C [Compound 302, tert-butyl N-[((5Z)-5-{[5-(2-chlorophenyl)-2-furyl]methylene}-4-oxo-2-thioxo-1,3-thiazolidin-3-yl)acetyl]alaninate]
